Several values for one entry are separate records, joined by “and”; a condition that tells them apart may be missing. Identical values can stand only once.
Experiments:
[1] = test system: LPS-induced endotoxemia and sepsis; assay: LPS-induced sepsis model, survival (UP446 study); assay type: in vivo, CD-1 mice
Text: This model used survival rate of animals as the end point measurement (Wang et al., 1999). Lipopolysaccharide (LPS) is an integral component of the outer membrane of gram-negative bacteria and a major contributing factor in the initiation of a generalized inflammatory process that may lead to endotoxin shock. It is a state mediated principally by macrophages/monocytes and is attributed to excessive production of several early phase cytokines such as TNF-α, IL-1, IL-6 and gamma interferon (IFN-γ) as well as a late-stage mediator, HMGB1. Following a median lethal dose of LPS (25 mg/kg) administration dissolved in phosphate-buffered saline (PBS; Lifeline, Lot #07641), animals develop endotoxemia and HMGB1 would be detected in the serum at 8 hours and reach to a peak and plateau levels from 16 to 32 hours after LPS. If untreated, mice would start to die within 24 hours. In the current study, we monitored the mice for 4 days after LPS injection. […] The following groups were included in the study:
In this model, mice were pretreated with bioflavonoid composition—UP446, illustrated in the Example 4, for a week (7 days) before lethal dose intraperitoneal injection of LPS (E. coli, 055:B5; Sigma, St. Louis, MO; Lot #081275) at 25 mg/kg with a 10 mL/kg PBS volume. Animals were observed hourly. Given the fact that sodium butyrate improved LPS-induced injury in mice through suppression of HMGB1 release, we chose this compound as a positive control for our study (Li et al., 2018).

LPS-induced sepsis = LPS-induced sepsis model, composition vs constituents, Colby synergy; assay type: in vivo, CD-1 mice
Method: On the 8th day, mice were injected intraperitoneally (i.p.) with 25 mg/kg LPS dissolved in PBS at 10 mL/kg. Mice in the UP894-II-treated group received a daily dose of UP894-II at 250 mg/kg. All mice continued to receive the treatment daily for the duration of study, which was completed on the 6th day post LPS injection. Following a median lethal dose of LPS (25 mg/kg) by i.p. administration, animals are expected to develop sepsis within a few hours. If untreated, mice would start to die within 24 hours. Animals were observed hourly. In the current study, we monitored the mice for 6 days after LPS injection.
For the blending of these plant extracts to have unexpected synergy, the observed inhibition needs to be greater than the calculated value.
The LPS-induced survival study was utilized to evaluate possible synergy or unexpected effects of extracts from Scutellaria and Acacia, when formulated together in a specific ratio, using Colby's method.

TNF-α = assay: LPS-induced acute lung injury, serum TNF-α ELISA; assay type: in vivo, Sprague Dawley rats; settings: UP446 250 mg/kg, SB 500 mg/kg
Method: The presence of TNF-α in undiluted rat serum was measured using the rat TNF-α Quantikine ELISA kit from RandD Systems (product #: RTA00) as follows: undiluted serum was added to a microplate coated with TNF-α antibody. […] The washing was repeated, and enzyme substrate was added to the plate.

IL-1β = assay: LPS-induced acute lung injury, serum IL-1β ELISA; assay type: in vivo, Sprague Dawley rats; settings: UP446 250 mg/kg, SB 500 mg/kg
Method: The presence of IL-1β in undiluted rat serum was measured using the Rat IL-1β Quantikine ELISA kit from RandD Systems (product #: RLB00) as follows: undiluted serum was added to a microplate coated with IL-1β antibody. […] The washing was repeated, and enzyme substrate was added to the plate.

[2] = test system: LPS-induced acute lung injury; assay: LPS-induced acute lung injury, lung histopathology (H&E); assay type: in vivo, Sprague Dawley rats; settings: UP446 high dose 250 mg/kg, Sodium Butyrate 500 mg/kg
Method: The severity of lung damage as a result of intratracheal LPS was assessed using HandE-stained lung tissue. The left lobe of the lung was used for the histopathology analysis.

[3] = cumulative, LPS 25 mg/kg i.p., UP446 250, Sodium Butyrate 500 mg/kg oral, N=8
[4] = SB 500, UP894-II 250, RM405 200, RM406 50 mg/kg
[5] = SB 500, UP894-II 250, RM405 200, RM406 50 mg/kg, listed as SB
[6] = per interval, SB 500, UP894-II 250, RM405 200, RM406 50 mg/kg oral, N=13

In the case of `CCCC(=O)[O-].[Na+]` [Sodium Butyrate], the Survival rate ([1]; 48 hours after LPS injection, UP446 250, SB 500 mg/kg) is reported as “half of the animals were deceased”, the “# of Death after LPS, 24 hr” value [1, 3] is reported as 2 and the “# of Death after LPS, 32 hr” value [1, 3] is reported as 3. The “# of Death after LPS, 34 hr” value [1, 3] was 3, the “# of Death after LPS, 48 hr” value [1, 3] was 4 and the “# of Death after LPS, 58 hr” value [1, 3] was 4. For the same compound, the “# of Death after LPS, 72 hr” value [1, 3] was 4, the “# of Death after LPS, 82 hr” value [1, 3] was 4 and the “Mortality rate, 0 hr” value (LPS-induced sepsis; [4]) was 0.00%. For the same compound, the “Mortality rate, 24 hr post LPS” value (LPS-induced sepsis; [4]) was 15.38%, the “Mortality rate, 36 hr post LPS” value (LPS-induced sepsis; [4]) was 46.15% and the “Mortality rate, 48 hr post LPS” value (LPS-induced sepsis; [4]) was 53.85%. The “Mortality rate, 60 hr post LPS” value (LPS-induced sepsis; [4]) was 61.54%, the “Mortality rate, 72 hr post LPS” value (LPS-induced sepsis; [4]) was 61.54% and the “Mortality rate, 96 hr post LPS” value (LPS-induced sepsis; [4]) was 69.23%. The “Mortality rate, 120 hr post LPS” value (LPS-induced sepsis; [4]) was 69.23%, the “Mortality rate, 144 hr post LPS (end of observation)” value (LPS-induced sepsis; [4]) was 69.23% and the “Survival rate, 0 hr” value (LPS-induced sepsis; [4]) was 100.0%. The “Survival rate, 24 hr post LPS” value (LPS-induced sepsis; [4]) was 84.6%, the “Survival rate, 48 hr post LPS” value (LPS-induced sepsis; [4]) was 46.2% and the “Survival rate, 60 hr post LPS” value (LPS-induced sepsis; [4]) was 38.5%. For the same compound, the “Survival rate, 96 hr post LPS” value (LPS-induced sepsis; [4]) was 30.8%, the “Survival rate, 120 hr post LPS” value (LPS-induced sepsis; [4]) was 30.8% and the “Survival rate, 144 hr post LPS (end of observation)” value (LPS-induced sepsis; [4]) was 30.8%. For the same compound, the “Survival rate, 36 hr post LPS” value (LPS-induced sepsis; [5]) was 53.9% and 53.8%, the “Survival rate, 72 hr post LPS” value (LPS-induced sepsis; [5]) was 38.5% and the “Number of deceased animals post LPS, 24 hours” value (LPS-induced sepsis; [6]) was 2. The “Number of deceased animals post LPS, 36 hours” value (LPS-induced sepsis; [6]) was 4, the “Number of deceased animals post LPS, 48 hours” value (LPS-induced sepsis; [6]) was 1 and the “Number of deceased animals post LPS, 60 hours” value (LPS-induced sepsis; [6]) was 1. The “Number of deceased animals post LPS, 72 hours” value (LPS-induced sepsis; [6]) was 0, the “Number of deceased animals post LPS, 96 hours” value (LPS-induced sepsis; [6]) was 1 and the “Number of deceased animals post LPS, 120 hours” value (LPS-induced sepsis; [6]) was 0. For the same compound, the “Number of deceased animals post LPS, 144 hours” value (LPS-induced sepsis; [6]) was 0, the Survived (LPS-induced sepsis; through 144 hours post LPS, N=13) was 4 and the “Reduction in serum TNF-α level vs vehicle control” value (TNF-α) was 67.9%. For the same compound, the “Reduction in serum IL-1β level vs vehicle” value (IL-1β) was 65.3%, the “Infiltration of PMN cell, score 0-4” value [2] was 2.75 ± 0.78 and the “Overall Lung Damage Severity, score 0-4” value [2] was 3.05 ± 0.42. The “Pulmonary Edema, score 0-4” value [2] was 2.35 ± 0.95.

From patent US20250183494A1, “Standardized Bioflavonoid Composition for Regulation of Homeostasis of Host Defense Mechanism” (priority 2021, published 2025)
